These results are taken from patent publication US4122181A, “Analgesic (3-micotinamido-N(quinolyl) anthranilates and method of use” (Pierre Fabre S.A., priority 1975, dated 1978).

Structures are written as SMILES. ≈ marks a conversion by molar mass, not a printed value. Like-named read-outs stand apart in the source and are kept apart here. Where only a bound is given, the exact number is not on record here.

In data set [1] the test system is mice. The data set is described as follows: Falling of mice placed on a turning horizontal bar (central properties). It is filed as in vivo, mouse. The following applies: bar of 4 cm diameter turning at 8 rpm.
A short description of data set [2]: Solubility characteristics.
The test system of data set [3] is phenyl benzoquinone. Description: Analgesic activity by the technique of SIEGMUND et al. (phenyl benzoquinone). The data set is classed as in vivo. The following applies: read-out: ED50, analgesic activity. The method, then:
The compounds are administered orally 30 minutes before the injection of the phenyl benzoquinone solution.

Data set [4] relates to mice. The data set is described as follows: Potentialization of anesthesia induced by chloral hydrate in mice. The data set is classed as in vivo, mouse. The following applies: 350 mg/kg chloral hydrate i.p., compound 100 mg/kg orally 30 minutes in advance.
Data set [5] can be described thus: Acute toxicity (LD50, method of MILLER and TAINTER) in the conventional mouse. The following applies: in vivo, mouse about 20 g. The method, then: The toxicology study was carried out on the conventional mouse weighing about 20 g.
The substances were administered orally and intraperitoneally. The LD50 is calculated by the method of MILLER and TAINTER (Proc. Soc. Exper. Biol. Med. 1944, 57, 261).

Data set [6] concerns rabbit tooth. The data set is described as follows: Analgesic activity: electrical stimulation of rabbit tooth (CHEYMOL). It is filed as in vivo. As to conditions: for time of maximum activity after administration: 100 mg/kg, administered orally; for analgesic activity compared with the control product (glaphenine): electrical stimulation of rabbit tooth. From the text:
(b) Electrical stimulation of rabbit tooth in accordance with CHEYMOL - Therapie 1959, XIV, p. 350 to 360.

Data set [7] relates to rats. It is filed as in vivo, rat. The procedure:
The ulceration index was determined in rats subjected to constraint for 7 hours.
The vehicle is a 4% aqueous solution of Tween 80 (TM - surface active agent).
The ulcerogenic index is calculated in accordance with the criteria established by […] et al. (Arch. Int. Pharmacodyn; 1971, 190, 6-13).

The mark [8] stands for this setting: oral, 30 minutes before injection of phenyl benzoquinone solution.
Where [9] appears, read: ip, intraperitoneal, read-out: LD50, intraperitoneally.
Where [10] appears, read: rats, oral, dose 100 (unit not given), N = 10, constraint for 7 hours.

In the case of `O=C(NCCOC(=O)c1ccccc1Nc1ccnc2cc(Cl)ccc12)c1cccnc1` [F 1531, β-nicotinamido-ethyl-N(7-chloro 4-quinolyl)-anthranilate], the “doses resulting in the falling of mice from turning horizontal bar” value in data set [1] was “identical with the lethal doses”. The compound further had a solubility in data set [2] (1 n hcl) of 200 mg/mL (≈ 448 mM). For the same compound, the ED50 in data set [3] (setting [8]) was found to be 28 mg/kg. The “effect on anesthesia induced by chloral hydrate” value in data set [4] is reported as “neither potentialization nor decrease in the anesthesia”. Besides, the LD50 in data set [5] (setting [9]) was > 500 mg/kg; in data set [5] (oral, read-out: LD50, orally), 2800 ± 500 mg/kg. Besides, the “time of maximum activity after administration” value in data set [6] is recorded as “about 60 minutes”. Further, in data set [6], the “analgesic activity compared with the control product (glaphenine)” value is “better activity than the control product (glaphenine)”. In data set [7] (setting [10]), this compound came in with a Ulceration index of 5.3.

For `O=C(NCCOC(=O)c1ccccc1Nc1ccnc2cc(C(F)(F)F)ccc12)c1cccnc1` [F 1636, β-nicotinamido-ethyl-N(7-trifluoromethyl-4-quinolyl)-anthranilate], in data set [2] (dimethyl formamide), the “solubility in dimethyl formamide” value worked out at 8%. Further, the ED50 in data set [3] (setting [8]) came to 15 mg/kg. Also, the LD50 in data set [5] (setting [9]) is > 1000 mg/kg. The LD50 in data set [5] (oral, read-out: LD50, orally) was found to be 3200 ± 500 mg/kg. For the same compound, in data set [6], the “time of maximum activity after administration” value was “about 60 minutes” and the “analgesic activity compared with the control product (glaphenine)” value was “better activity than the control product (glaphenine)”. The Ulceration index in data set [7] (setting [10]) is on record as 4.2.

As to `Nc1ccccc1C(=O)OCCNC(=O)c1cccnc1` [β-nicotinamido-ethyl anthranilate], the solubility in alcohol in data set [2] (alcohol) was 2.5%. In addition, the “solubility in dimethyl acetamide” value in data set [2] (dimethyl acetamide) is reported as 100%. The solubility in water result in data set [2] (water) is given as “insoluble”.

In the case of `CC(=O)Oc1ccccc1C(=O)O` [Aspirin, reference compound], the median effective dose (ED50) in data set [3] (po) amounted to 100 mg/kg. The compound also returned a Ulceration index in data set [7] (rat, in vivo, po) of 13.1.

In the case of `O=C(OCC(O)CO)c1ccccc1Nc1ccnc2cc(Cl)ccc12` (stereo not shown) [Glaphenine, reference compound], the ED50 in data set [3] (setting [8]) was found to be 36 mg/kg. For the same compound, the LD50 in data set [5] (setting [9]) is ~500 mg/kg; in data set [5] (oral, read-out: LD50, orally) it was 1500 ± 500 mg/kg. Also, the Ulceration index in data set [7] (setting [10]) was 8.8.
